Results published in ChEMBL document CHEMBL1201862, “PubChem BioAssay data set” (2004).
Activity calls are given as the source filed them.

Experiments:
Protein skinhead-1 = target: T1, Protein skinhead-1 (Caenorhabditis elegans, UniProt P34707); type: functional
T1 sequence (P34707 whole entry): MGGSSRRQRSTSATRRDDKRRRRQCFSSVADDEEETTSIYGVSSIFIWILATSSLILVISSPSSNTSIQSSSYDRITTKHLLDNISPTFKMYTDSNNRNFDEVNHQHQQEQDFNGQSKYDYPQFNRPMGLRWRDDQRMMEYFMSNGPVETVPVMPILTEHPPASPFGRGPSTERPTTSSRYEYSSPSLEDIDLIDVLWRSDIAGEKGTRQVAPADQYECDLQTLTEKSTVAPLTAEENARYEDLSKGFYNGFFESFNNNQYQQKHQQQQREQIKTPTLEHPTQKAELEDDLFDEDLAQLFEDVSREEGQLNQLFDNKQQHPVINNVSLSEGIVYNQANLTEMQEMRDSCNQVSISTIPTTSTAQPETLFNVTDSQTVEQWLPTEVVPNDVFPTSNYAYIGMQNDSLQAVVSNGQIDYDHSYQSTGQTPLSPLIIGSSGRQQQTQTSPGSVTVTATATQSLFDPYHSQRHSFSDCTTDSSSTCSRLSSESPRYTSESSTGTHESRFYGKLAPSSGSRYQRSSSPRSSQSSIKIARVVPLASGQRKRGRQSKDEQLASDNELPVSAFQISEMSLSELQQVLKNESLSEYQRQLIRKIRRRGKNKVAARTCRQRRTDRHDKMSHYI

Bcl-2-related protein A1 [1] = target: T2, Bcl-2-related protein A1 (Mus musculus, UniProt Q07440); assay: Bfl-1 inhibitors blocking BH3 peptide binding, confirmation, biochemical, TR-FRET, mouse Bfl-1 (AID 621);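 also: TR-FRET binding of GST-Bfl-1 to FITC-labelled Bid peptide via terbium antibody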
T2 sequence (Q07440 whole entry): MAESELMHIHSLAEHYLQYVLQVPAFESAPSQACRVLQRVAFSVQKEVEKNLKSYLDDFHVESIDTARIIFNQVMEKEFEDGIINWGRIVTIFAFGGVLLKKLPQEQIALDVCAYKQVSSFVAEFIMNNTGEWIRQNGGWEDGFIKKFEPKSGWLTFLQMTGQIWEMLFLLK

[2] = target: T3, Oxysterols receptor LXR-beta (Homo sapiens, UniProt P55055); type: functional, cell-based;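 also: agonist activity at LXR measured by a cell-based luminescence readout across a dose range, run as a counterscreen for daf-12 agonists; HEK293 cells with Gal4-LXR fusion and GAL4-driven luciferase reporter; potency for activation of Gal4-LXR reporter so compounds are agonists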
T3 sequence (P55055 whole entry): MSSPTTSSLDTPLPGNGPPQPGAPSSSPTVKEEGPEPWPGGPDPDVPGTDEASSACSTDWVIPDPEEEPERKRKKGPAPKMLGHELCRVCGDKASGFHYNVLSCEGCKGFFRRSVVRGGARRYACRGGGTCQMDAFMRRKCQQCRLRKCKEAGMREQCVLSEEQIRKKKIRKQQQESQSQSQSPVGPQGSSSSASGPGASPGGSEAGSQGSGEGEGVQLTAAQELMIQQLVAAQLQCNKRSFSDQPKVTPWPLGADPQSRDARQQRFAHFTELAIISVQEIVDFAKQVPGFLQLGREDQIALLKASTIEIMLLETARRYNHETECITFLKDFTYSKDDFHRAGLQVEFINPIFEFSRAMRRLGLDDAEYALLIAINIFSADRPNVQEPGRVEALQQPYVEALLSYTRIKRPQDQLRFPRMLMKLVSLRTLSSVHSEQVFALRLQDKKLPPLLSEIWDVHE

Bcl-2-related protein A1 [3] = target: T2, Bcl-2-related protein A1; assay: Bfl-1 binding inhibitors, SAR follow-up, biochemical, fluorescence polarization (AID 1070)
[4] = HepG2 cell cytotoxicity, dose response, cytotoxicity control for non-replicating M. tuberculosis project (AID 489018); type: functional; settings: Mycobacterium tuberculosis
cells = type: functional
[5] = Luminescence Cell-Based Dose Retest to Confirm Inhibitors of Cancer Stem Cells. [Related pubchem assays (depositor defined):AID2717, AID2721]; type: functional; settings: Homo sapiens
[6] = Luminescence-based dose response cell-based high throughput screening assay for cytotoxic compounds using the IEC-6 intestinal epithelial cell line. [Related pubchem assays: 1858 (Summary AID.), 1825 (Counterscreen.), 1907 (Confirmation screen.)]; type: functional
[7] = Vero E6 cell cytotoxicity, dose response, cytotoxicity control for non-replicating M. tuberculosis project, secondary assay (AID 492998); type: functional, VeroE6; settings: Vero C1008
Paired box protein Pax-8 = Paired box protein Pax-8 (Homo sapiens, UniProt Q06710); assay: inhibitors of PAX8-driven TPO luciferase reporter, dose response, RMG-I cells, cherry-pick (AID 687027); type: functional, cell-based;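 also: luciferase reporter driven by Pax8 target thyroperoxidase promoter measured by SteadyGlo luminescence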
[8] = THP-1 cell cytotoxicity, dose response, cytotoxicity control for non-replicating M. tuberculosis project (AID 489025); type: functional
[9] = target: Voltage-gated inwardly rectifying potassium channel KCNH2 (Homo sapiens, UniProt Q12809); assay: hERG protection from proarrhythmic block, potency, dose response, cell-based, thallium flux (AID 2121); type: ADME
fMet-Leu-Phe receptor = target: T4, fMet-Leu-Phe receptor (Homo sapiens, UniProt P21462); assay: FPR ligands, dose response (AID 519); type: functional
T4 sequence (P21462 whole entry): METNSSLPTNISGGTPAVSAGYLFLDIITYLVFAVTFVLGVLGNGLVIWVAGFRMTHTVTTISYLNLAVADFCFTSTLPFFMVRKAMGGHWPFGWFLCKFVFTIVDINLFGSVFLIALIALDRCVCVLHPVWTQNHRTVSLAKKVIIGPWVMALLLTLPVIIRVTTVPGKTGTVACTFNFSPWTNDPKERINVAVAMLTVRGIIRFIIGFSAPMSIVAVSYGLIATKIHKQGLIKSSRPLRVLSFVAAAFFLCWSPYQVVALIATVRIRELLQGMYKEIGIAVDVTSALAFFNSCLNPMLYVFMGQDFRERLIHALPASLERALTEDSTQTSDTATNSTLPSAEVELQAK

Nonstructural protein 1 = Nonstructural protein 1 (Influenza A virus, UniProt Q194T2); type: functional, Influenza A virus (A/California/07/2009(H1N1))
[10] = target: T5, Apoptotic protease-activating factor 1 (Homo sapiens, UniProt O14727); type: functional
T5 sequence (O14727 whole entry): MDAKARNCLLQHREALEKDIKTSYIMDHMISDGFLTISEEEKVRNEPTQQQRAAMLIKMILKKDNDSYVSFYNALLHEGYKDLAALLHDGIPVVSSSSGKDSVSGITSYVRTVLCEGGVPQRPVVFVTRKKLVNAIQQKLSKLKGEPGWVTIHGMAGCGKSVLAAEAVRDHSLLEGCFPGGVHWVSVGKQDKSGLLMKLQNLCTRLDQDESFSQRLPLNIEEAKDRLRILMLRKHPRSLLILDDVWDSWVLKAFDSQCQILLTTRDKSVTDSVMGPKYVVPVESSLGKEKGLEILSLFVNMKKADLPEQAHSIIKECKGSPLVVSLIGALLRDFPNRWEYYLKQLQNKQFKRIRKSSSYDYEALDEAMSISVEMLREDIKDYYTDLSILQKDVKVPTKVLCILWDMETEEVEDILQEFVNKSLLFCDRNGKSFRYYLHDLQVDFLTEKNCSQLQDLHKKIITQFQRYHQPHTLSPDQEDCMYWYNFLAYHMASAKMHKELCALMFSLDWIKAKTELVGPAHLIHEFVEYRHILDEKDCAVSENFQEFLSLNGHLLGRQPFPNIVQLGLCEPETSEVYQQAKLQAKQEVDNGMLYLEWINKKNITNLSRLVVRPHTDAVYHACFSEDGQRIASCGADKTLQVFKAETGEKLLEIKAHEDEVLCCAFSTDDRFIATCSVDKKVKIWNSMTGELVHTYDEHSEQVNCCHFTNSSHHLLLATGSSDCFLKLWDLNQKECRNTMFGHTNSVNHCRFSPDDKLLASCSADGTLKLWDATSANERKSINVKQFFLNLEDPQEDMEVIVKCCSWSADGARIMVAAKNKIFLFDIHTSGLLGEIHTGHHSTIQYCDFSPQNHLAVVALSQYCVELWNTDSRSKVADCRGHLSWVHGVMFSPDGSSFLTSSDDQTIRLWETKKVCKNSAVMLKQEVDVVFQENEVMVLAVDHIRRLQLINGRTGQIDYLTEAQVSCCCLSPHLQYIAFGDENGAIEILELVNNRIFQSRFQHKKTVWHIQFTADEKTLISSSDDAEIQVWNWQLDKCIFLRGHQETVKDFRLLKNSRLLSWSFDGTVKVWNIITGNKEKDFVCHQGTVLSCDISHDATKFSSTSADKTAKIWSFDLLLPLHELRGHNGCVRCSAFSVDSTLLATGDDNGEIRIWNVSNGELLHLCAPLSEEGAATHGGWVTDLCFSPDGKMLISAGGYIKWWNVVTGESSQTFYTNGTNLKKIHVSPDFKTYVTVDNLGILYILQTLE

Bcl-2-like protein 10 = Bcl-2-like protein 10 (Homo sapiens, UniProt Q9HD36); assay: displacers of TR3 peptide from Bcl-B, primary screen, selectivity assay for Bfl-1 inhibitor project, biochemical, fluorescence polarization, FITC-TR3 peptide (AID 748);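 also: fluorescence polarization from a fluorescein-labelled TR3 peptide binding purified Bcl-B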
Estrogen receptor beta = Estrogen receptor beta (Homo sapiens, UniProt Q92731); assay: ERβ–SRC-3 coactivator interaction inhibitors, confirmation, orthogonal assay, biochemical, ELISA, streptavidin-HRP readout (AID 1060)
Large T antigen = Large T antigen (Simian virus 40, UniProt P03070); type: functional, Betapolyomavirus macacae;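 also: Confirmatory-stage PubChem screen for compounds that inhibit SV40 T antigen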
NADPH oxidase 1 = NADPH oxidase 1 (Homo sapiens, UniProt Q9Y5S8); assay: Luminescence-based cell-based dose response assay to identify inhibitors of NADPH oxidase 1 (NOX1).; type: functional
[11] = target: Sphingosine 1-phosphate receptor 2 (Homo sapiens, UniProt O95136); assay: Dose Response Cell Based Assay for Agonists of the S1P2 Receptor of Purchased Analogues. [Related pubchem assays: 729, 843, 854, 736 ]; type: functional
[12] = cytotoxicity in HPDE-C7 cells, cell-based, fluorescence, HTS (AID 430); type: functional; settings: Homo sapiens
[13] = cytotoxicity in KRAS-transformed pancreatic duct cells, primary screen, cell-based, fluorescence, HTS (AID 431); type: functional; settings: Homo sapiens;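 also: cell line used: HPDE-C7K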

Chain of Voltage-gated inwardly rectifying potassium channel KCNH2 (Q12809 whole entry): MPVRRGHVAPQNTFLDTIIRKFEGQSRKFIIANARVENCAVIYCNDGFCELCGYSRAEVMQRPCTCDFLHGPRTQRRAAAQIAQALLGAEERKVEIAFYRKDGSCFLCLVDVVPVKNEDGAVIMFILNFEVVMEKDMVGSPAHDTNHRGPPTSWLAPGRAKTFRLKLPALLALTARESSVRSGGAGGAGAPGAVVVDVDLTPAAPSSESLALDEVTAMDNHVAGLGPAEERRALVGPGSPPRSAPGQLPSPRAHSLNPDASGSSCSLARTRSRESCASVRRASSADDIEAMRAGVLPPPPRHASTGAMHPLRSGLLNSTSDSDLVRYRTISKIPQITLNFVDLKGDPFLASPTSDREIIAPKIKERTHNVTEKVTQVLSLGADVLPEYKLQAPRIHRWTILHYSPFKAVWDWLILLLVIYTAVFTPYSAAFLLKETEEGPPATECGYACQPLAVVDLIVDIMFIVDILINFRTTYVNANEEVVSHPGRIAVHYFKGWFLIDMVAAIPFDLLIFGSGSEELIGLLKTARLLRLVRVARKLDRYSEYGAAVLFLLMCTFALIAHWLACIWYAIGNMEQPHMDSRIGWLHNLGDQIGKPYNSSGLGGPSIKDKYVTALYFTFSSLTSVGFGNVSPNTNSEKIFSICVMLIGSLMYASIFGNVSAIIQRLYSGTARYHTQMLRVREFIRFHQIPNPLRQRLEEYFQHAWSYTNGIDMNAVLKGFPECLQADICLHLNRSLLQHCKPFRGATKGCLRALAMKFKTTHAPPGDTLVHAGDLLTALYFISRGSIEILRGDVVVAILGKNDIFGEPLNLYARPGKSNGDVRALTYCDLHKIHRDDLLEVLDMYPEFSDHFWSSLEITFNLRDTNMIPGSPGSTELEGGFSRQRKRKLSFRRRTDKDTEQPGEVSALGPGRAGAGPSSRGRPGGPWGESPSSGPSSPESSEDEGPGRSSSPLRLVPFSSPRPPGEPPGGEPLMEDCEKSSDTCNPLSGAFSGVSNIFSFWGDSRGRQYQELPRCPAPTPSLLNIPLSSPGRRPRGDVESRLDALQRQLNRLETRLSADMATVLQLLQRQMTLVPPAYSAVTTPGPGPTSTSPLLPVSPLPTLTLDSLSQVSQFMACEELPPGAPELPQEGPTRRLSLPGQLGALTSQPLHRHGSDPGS
Chain of NADPH oxidase 1 (Q9Y5S8 whole entry): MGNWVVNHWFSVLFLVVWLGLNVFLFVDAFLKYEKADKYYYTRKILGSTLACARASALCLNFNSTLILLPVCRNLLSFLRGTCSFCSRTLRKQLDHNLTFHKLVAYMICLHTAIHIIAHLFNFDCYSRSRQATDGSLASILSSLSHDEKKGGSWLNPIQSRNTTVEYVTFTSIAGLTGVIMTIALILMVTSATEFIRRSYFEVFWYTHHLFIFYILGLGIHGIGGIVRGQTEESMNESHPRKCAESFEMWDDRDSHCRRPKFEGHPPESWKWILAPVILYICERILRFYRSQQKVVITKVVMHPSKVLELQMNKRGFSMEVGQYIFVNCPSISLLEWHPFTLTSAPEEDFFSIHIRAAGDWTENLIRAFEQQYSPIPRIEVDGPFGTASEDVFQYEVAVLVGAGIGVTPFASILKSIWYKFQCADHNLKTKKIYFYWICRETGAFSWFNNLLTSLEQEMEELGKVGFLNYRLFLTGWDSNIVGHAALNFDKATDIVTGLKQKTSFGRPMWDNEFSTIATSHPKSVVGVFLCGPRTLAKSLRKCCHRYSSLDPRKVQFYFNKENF
Chain of Large T antigen (P03070 whole entry): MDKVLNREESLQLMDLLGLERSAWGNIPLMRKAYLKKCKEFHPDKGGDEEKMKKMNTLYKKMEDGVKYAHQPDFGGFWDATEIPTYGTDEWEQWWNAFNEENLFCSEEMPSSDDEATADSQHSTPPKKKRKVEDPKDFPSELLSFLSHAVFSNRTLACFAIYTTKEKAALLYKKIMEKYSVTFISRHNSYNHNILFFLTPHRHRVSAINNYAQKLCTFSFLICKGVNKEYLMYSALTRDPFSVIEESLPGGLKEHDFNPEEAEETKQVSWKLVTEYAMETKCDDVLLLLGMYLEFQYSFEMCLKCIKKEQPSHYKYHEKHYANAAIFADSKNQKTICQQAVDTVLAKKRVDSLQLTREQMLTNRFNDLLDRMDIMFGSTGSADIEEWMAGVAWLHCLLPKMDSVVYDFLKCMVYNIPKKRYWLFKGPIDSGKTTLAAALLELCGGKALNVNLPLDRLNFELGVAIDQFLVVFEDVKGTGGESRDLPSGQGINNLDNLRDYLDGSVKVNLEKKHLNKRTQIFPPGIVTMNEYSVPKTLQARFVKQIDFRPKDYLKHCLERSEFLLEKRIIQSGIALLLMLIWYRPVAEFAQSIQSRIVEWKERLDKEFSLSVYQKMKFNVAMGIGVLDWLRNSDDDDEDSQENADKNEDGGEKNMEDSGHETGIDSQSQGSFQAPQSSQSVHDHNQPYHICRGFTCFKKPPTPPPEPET
Chain of Nonstructural protein 1 (Q194T2 whole entry): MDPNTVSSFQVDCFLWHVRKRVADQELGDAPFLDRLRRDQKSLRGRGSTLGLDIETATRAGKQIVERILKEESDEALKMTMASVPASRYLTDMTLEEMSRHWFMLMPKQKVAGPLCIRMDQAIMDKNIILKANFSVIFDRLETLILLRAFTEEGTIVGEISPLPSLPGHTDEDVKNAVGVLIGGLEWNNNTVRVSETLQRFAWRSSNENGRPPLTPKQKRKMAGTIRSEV
Chain of Bcl-2-like protein 10 (Q9HD36 whole entry): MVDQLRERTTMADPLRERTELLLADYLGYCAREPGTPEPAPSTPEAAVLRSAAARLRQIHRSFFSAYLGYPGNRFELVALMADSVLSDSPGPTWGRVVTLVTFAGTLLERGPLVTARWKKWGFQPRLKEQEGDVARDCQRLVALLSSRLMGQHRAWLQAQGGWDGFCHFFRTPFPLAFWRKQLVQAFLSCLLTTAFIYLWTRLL
Chain of Estrogen receptor beta (Q92731 whole entry): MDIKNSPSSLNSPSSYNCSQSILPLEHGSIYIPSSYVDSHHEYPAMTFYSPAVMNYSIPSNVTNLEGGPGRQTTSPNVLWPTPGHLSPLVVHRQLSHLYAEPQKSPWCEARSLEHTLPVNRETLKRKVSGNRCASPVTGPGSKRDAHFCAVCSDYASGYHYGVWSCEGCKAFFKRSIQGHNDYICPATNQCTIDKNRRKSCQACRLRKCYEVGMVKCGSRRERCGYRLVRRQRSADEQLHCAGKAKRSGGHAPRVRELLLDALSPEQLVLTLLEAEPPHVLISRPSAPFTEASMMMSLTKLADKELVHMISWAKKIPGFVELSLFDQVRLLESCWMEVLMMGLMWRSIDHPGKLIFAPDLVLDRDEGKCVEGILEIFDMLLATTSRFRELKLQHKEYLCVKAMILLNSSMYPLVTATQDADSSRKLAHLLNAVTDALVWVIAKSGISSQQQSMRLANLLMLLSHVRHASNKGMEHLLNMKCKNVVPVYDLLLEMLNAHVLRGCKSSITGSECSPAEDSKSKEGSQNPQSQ
Chain of Paired box protein Pax-8 (Q06710 whole entry): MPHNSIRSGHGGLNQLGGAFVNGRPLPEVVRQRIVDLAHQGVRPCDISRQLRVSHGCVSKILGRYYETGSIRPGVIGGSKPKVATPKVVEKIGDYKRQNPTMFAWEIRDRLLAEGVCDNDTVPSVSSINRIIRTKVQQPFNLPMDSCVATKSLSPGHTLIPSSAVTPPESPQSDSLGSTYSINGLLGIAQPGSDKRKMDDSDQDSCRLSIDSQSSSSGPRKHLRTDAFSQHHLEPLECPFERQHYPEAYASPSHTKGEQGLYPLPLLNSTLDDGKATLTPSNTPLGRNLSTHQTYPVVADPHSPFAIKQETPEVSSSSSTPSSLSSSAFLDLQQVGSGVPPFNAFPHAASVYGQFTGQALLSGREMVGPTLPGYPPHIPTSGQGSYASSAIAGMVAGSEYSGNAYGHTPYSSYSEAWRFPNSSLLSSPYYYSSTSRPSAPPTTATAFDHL
Chain of Sphingosine 1-phosphate receptor 2 (O95136 whole entry): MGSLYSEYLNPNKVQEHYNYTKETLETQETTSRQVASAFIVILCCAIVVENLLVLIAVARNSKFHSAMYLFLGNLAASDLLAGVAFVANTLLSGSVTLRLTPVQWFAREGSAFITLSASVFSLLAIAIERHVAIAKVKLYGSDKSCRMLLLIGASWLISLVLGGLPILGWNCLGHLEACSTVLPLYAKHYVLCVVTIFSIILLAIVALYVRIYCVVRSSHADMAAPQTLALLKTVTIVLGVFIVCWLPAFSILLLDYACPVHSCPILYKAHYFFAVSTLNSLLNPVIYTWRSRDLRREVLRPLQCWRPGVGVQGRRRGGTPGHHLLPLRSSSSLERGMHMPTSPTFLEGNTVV

## Fc1ccc(-n2nnc(-c3cccnc3Cl)n2)cc1
Protein skinhead-1
  IC50: 21 µM (active)
Bcl-2-related protein A1 [1]
  IC50: > 100 µM (not active)
[2]
  EC50: > 67.5 µM (inactive)
Bcl-2-related protein A1 [3]
  IC50: > 100 µM (not active)

## O=C(Nc1ccc(N2CCN(C(=O)c3cccs3)CC2)cc1)c1ccc([N+](=O)[O-])o1
[4]
  CC50: > 20 µM (active)
cells
  IC50: < 0.1 µM (active)
[5]
  AC50: 1.5 µM (active)
[6]
  IC50: 1.77 µM (active)
[7]
  CC50: 1.46 µM (active)
Paired box protein Pax-8
  AC50: 1.96 µM (active)
[8]
  CC50: 1.18 µM (active)

## C=CCN(CC=C)C(=S)NC(=O)/C=C/c1ccc(OC)cc1
[9]
  EC50: 3.01 µM (active)

## CCOC(=O)N1CCN(c2cc(NCCC(=O)O)c3c4c(onc24)-c2ccccc2C3=O)CC1
fMet-Leu-Phe receptor
  Ki: > 66.7 µM (inactive)
Nonstructural protein 1
  IC50: 20.3 µM (active)
[10]
  IC50: 25.6 µM (active)
Bcl-2-like protein 10
  IC50: 7.52 µM (active)
Estrogen receptor beta
  IC50: 5.41 µM (not active)
Large T antigen
  IC50: > 100 µM (active)

## CC(=O)N(C)c1ccc(NC(=O)Nc2ccc(Cl)cc2)cc1
NADPH oxidase 1
  IC50: > 20 µM (not active)

## CCCNC(=O)CN(C)CC(=O)c1cc(C)n(Cc2ccccc2)c1C
[11]
  EC50: > 30 µM (not active)

## COc1cccc(C2C=C(c3ccc(OC)cc3OC)Nc3nnnn32)c1 (configuration not stated)
[12]
  EC50: 9.03 µM (active)
[13]
  EC50: 8.72 µM (active)
